Square brackets hold non-standard residues; d marks the D form. Ends that are not written are not given here. * marks the point of attachment. Cyclohexyl = cyclohexyl group capping the N-terminus, C1CCC(*)CC1; Fmoc = O=C(OCC1c2ccccc2-c2ccccc21)*
Experiments:
[1] = tested on: Heliothis peltigera female moths; assay: Topical application: inhibition of sex pheromone biosynthesis (cuticular bioavailability); format: in vivo; conditions: for comparison of activity in IIS vs. tap water: topical application; for inhibition of pheromone biosynthesis / lowering of pheromone content compared to the solvent: 10 pmol
Method: FIG. 2. is a graph showing the effect of topically applied peptides on the inhibition of sex pheromone biosynthesis in Heliothis peltigera female moths. • The tested peptides are those listed in Table 1 (1-10, respectively). • Peptides were tested at a concentration of 10 pmol and were applied in IIS (0.5% ethanol, 0.05% Tween-80 in DDW), and DDW for 1 h. • Sex pheromone content is expressed as a percentage of the endogenous pheromone content obtained using control untreated moths (defined as 100%). Statistical analysis compared pheromone content in the presence of each peptide with that obtained with the corresponding solvents themselves (indicated by an asterisk).
FIG. 3A and FIG. 3B are graphs showing the dose response of Ac-A-dPhe-4 (3A) or Ac-A-dPhe-6 (3B) on inhibition of sex pheromone biosynthesis in Heliothis peltigera female moths. Peptides were applied in DDW for 1 h. • Sex pheromone content is expressed as a percentage of the endogenous pheromone content obtained using control untreated moths (defined as 100%). Statistical analysis compared pheromone content in the presence of each peptide at the indicated concentrations with that obtained with the solvent itself (indicated by an asterisk). A similar statistical analysis was also made against the pheromone content of untreated moths (indicated by #). […] Differences in the potency of the peptides at the indicated concentrations are depicted by letters.
FIG. 4. is a graph showing the time response of 1 nmol Ac-A-dPhe-4 and Ac-A-dPhe-6 (applied in DDW) on inhibition of sex pheromone biosynthesis in Heliothis peltigera female moths. • Sex pheromone content is expressed as a percentage of the endogenous pheromone content obtained using control untreated moths (defined as 100%). Statistical analysis compared pheromone content in the presence of each peptide at the indicated times with that obtained with the solvent itself at the same time point (indicated by an asterisk). […] Differences in the potency of the peptides at the indicated time points are depicted by letters. (Ac-A-dPhe-4: small letters; Ac-A-dPhe-6: capital letters).
FIG. 5A to FIG. 5C are graphs showing the effect of topically applied peptides on inhibition of sex pheromone biosynthesis in Heliothis peltigera female moths. • The tested peptides are those listed in Table 1 (1-6, respectively). Peptides were tested at a concentration of 1000 pmol (5A), 300 pmol (5B) or 100 pmol (5C) and were applied in DDW, DMSO and IIS for 7h. • Sex pheromone content is expressed as a percentage of the endogenous pheromone content obtained using control untreated moths (defined as 100%). Statistical analysis compared pheromone content in the presence of each peptide in a given solvent (DDW, DMSO or ITS) with that obtained with the solvents themselves (indicated by an asterisk).
a) Topical Application (TA)
This assay is used to determine cuticular penetrability.
The tested peptides are applied onto the insect (e.g. moths) at scotophase (when pheromone is naturally synthesized) in a given solvent for the indicated times.
Antagonistic activity was tested at a concentration of 10 pmol and the peptides were topically applied in two solvents: DDW and IIS (FIG. 2). […] Ac-A-dPhe-6 was the second best in IIS inhibiting pheromone biosynthesis by 74%.
Only minor differences in activity is observed as a function of a dose (with the exception of Ac-A-dPhe-4 at 1000 pmol, which inhibited pheromone production to a lesser extent of about 50%).
All experiments were carried out at the scotophase and the peptides were applied one hour before pheromone glands were excised (+5) and tested for pheromone content (at the 6th hour of the scotophase when the pheromone content is at its highest level). The high inhibition obtained under the tested conditions, indicates the extremely fast and high penetrability and bioactivity of the peptides of the invention. […]

[2] = tested on: Spodoptera littoralis larvae; assay: Melanotropic inhibitory activity: injection with a stimulator (PBAN, PT, LPK, DH); format: in vivo; conditions: for Melanotropic inhibitory activity, stimulator DH: injected with DH (diapause hormone); for Melanotropic inhibitory activity, stimulator DH / Melanotropic inhibitory activity, stimulator LPK / Melanotropic inhibitory activity, stimulator PBAN / Melanotropic inhibitory activity, stimulator PT: 100 pm; for Melanotropic inhibitory activity, stimulator LPK: injected with LPK (leucopyrokinin); for Melanotropic inhibitory activity, stimulator PBAN: injected with PBAN, inhibition = 100 minus % melanization with vs without peptide; for Melanotropic inhibitory activity, stimulator PT: injected with PT (pheromonotropin); for inhibition of melanin synthesis stimulated by LPK: stimulator LPK; for inhibition of melanin synthesis stimulated by PBAN: stimulator PBAN; for inhibition of melanin synthesis stimulated by PT: stimulator PT
From the text: FIG. 12. is a graph showing the melanotropic inhibitory activity of the peptides of the invention against different stimulators of the PK/PBAN family: PBAN, PT (pheromonotropin), LPK (leucopyrokinin), DH (diapause hormone). • Degree of cuticular melanization is expressed as a percentage of the melanization obtained by injection the elicitor itself (PBAN, PT, LPK or DH) in the absence of the tested peptide (not shown). Statistical analysis compared the degree of melanization in the presence and absence of the tested peptide with any given elicitor. An asterisk indicates a significant difference between the degree of melanization obtained in the presence of the peptide. This assay is used to test the agonistic properties of the tested peptides (in adult females), and to determine the peptides melanotropic agonistic or antagonistic properties (in larvae). It was also used to determine the activity of peptides that were stored outdoors for different amounts of time. The peptides are injected into either adult female insects (e.g. moths) at photophase (when pheromone is not synthesized naturally, but the insect has the ability to produce pheromone upon stimulation with a agonist) or into 5th instar larvae. Agonistic properties were tested by injection of the peptides alone; antagonistic properties were determined by injection of the peptide together with a stimulator. The ability of the peptides to inhibit cuticular melanin synthesis was tested in Spodoptera littoralis larvae. Inhibitory activity was tested by injecting the peptides to Spodoptera littoralis larvae together with a given stimulator: PBAN, PT, LPK and DH. Inhibition is expressed as 100 minus the ratio in percentage (%) between the extents of cuticular melanization obtain in the presence and absence of the tested peptide (Table 2).

| Substance | comparison of activity in IIS vs. tap water [1] | inhibition of pheromone biosynthesis ([1]; topical, in IIS, 1 h) [%] | potency as a function of application time ([1]; topical, 1 nmol in DDW, 1, 3 and 7 h) | Melanotropic inhibitory activity, stimulator DH [2] [%] | Melanotropic inhibitory activity, stimulator LPK [2] [%] | Melanotropic inhibitory activity, stimulator PBAN [2] [%] | Melanotropic inhibitory activity, stimulator PT [2] [%] | inhibition of melanin synthesis stimulated by LPK [2] | inhibition of melanin synthesis stimulated by PBAN [2] | inhibition of melanin synthesis stimulated by PT [2] | inhibition of pheromone production ([1]; topical in DDW, 1 h, 1000 pmol) | inhibition of pheromone biosynthesis ([1]; topical, in DDW, 1 h) [%] | activity as a function of the dose ([1]; topical, 7 h, in IIS and DMSO, 100, 300, 1000 pmol) | lowering of pheromone content compared to the solvent ([1]; topical, in DDW, 1 h) | lowering of pheromone content compared to the solvent ([1]; topical, in IIS, 1 h) | activity as a function of carrier ([1]; topical, 300 pmol, 7 h, DDW, IIS, DMSO) |
| --- | --- | --- | --- | --- | --- | --- | --- | --- | --- | --- | --- | --- | --- | --- | --- | --- |
| Acetyl-Ala-Ser-Pro-[dPhe]-Leu-amide (Ac-ASP[dF]L-NH2; SMILES CC(=O)N[C@@H](C)C(=O)N[C@@H](CO)C(=O)N1CCC[C@H]1C(=O)N[C@H](Cc1ccccc1)C(=O)N[C@@H](CC(C)C)C(N)=O) [Ac-A-dPhe-6] | No differences | 74 | did not differ | 29 | 0 | 63 | 100 | inhibited LPK | inhibited PBAN | inhibited PT |  |  |  |  |  |  |
| Acetyl-Ala-[dPhe]-Pro-Arg-Leu-amide (Ac-A[dF]PRL-NH2; SMILES CC(=O)N[C@@H](C)C(=O)N[C@H](Cc1ccccc1)C(=O)N1CCC[C@H]1C(=O)N[C@@H](CCCNC(=N)N)C(=O)N[C@@H](CC(C)C)C(N)=O) [Ac-A-dPhe-4] | No differences |  |  | 6 | 31 | 54 | 100 | inhibited LPK | inhibited PBAN | inhibited PT | about 50% | 83 | less active at 100 pmol compared to 300 and 1000 pmol |  |  |  |
| Acetyl-Arg-Tyr-Phe-Ser-Pro-[dPhe]-Leu-amide (Ac-RYFSP[dF]L-NH2; SMILES CC(=O)N[C@@H](CCCNC(=N)N)C(=O)N[C@@H](Cc1ccc(O)cc1)C(=O)N[C@@H](Cc1ccccc1)C(=O)N[C@@H](CO)C(=O)N1CCC[C@H]1C(=O)N[C@H](Cc1ccccc1)C(=O)N[C@@H](CC(C)C)C(N)=O) [Ac-dPhe-6] |  |  |  | 35 | 8 | 59 | 100 |  |  |  |  |  |  |  |  |  |
| Acetyl-Arg-Tyr-Phe-[dPhe]-Pro-Arg-Leu-amide (Ac-RYF[dF]PRL-NH2; SMILES CC(=O)N[C@@H](CCCNC(=N)N)C(=O)N[C@@H](Cc1ccc(O)cc1)C(=O)N[C@@H](Cc1ccccc1)C(=O)N[C@H](Cc1ccccc1)C(=O)N1CCC[C@H]1C(=O)N[C@@H](CCCNC(=N)N)C(=O)N[C@@H](CC(C)C)C(N)=O) [Ac-dPhe-4] |  |  |  | 22 | 51 | 70 | 100 |  | inhibited PBAN | inhibited PT |  |  |  |  |  |  |
| Arg-Tyr-Phe-Ser-Pro-[dPhe]-Leu-amide (RYFSP[dF]L-NH2; N-terminus assumed; SMILES CC(C)C[C@H](NC(=O)[C@@H](Cc1ccccc1)NC(=O)[C@@H]1CCCN1C(=O)[C@H](CO)NC(=O)[C@H](Cc1ccccc1)NC(=O)[C@H](Cc1ccc(O)cc1)NC(=O)[C@@H](N)CCCNC(=N)N)C(N)=O) [dPhe-6] |  |  |  | 15 | 78 | 49 | 74 |  |  |  |  |  |  | failed to lower pheromone content |  |  |
| Arg-Tyr-Phe-[dPhe]-Pro-Arg-Leu-amide (RYF[dF]PRL-NH2; N-terminus assumed; SMILES CC(C)C[C@H](NC(=O)[C@H](CCCNC(=N)N)NC(=O)[C@@H]1CCCN1C(=O)[C@@H](Cc1ccccc1)NC(=O)[C@H](Cc1ccccc1)NC(=O)[C@H](Cc1ccc(O)cc1)NC(=O)[C@@H](N)CCCNC(=N)N)C(N)=O) [dPhe-4] |  |  |  | 33 | 10 | 18 | 59 |  |  |  |  |  |  |  | failed to lower pheromone content | lower activity in DDW and IIS compared to DMSO |
| Cyclohexyl-Ala-Ser-Pro-[dPhe]-Leu-amide (Cyclohexyl-ASP[dF]L-NH2; SMILES CC(C)C[C@H](NC(=O)[C@@H](Cc1ccccc1)NC(=O)[C@@H]1CCCN1C(=O)[C@H](CO)NC(=O)[C@H](C)NC1CCCCC1)C(N)=O) [Cyc-A-dPhe-6] |  |  |  | 15 | 100 | 67 | 26 | inhibited LPK | inhibited PBAN |  |  |  |  |  |  |  |
| Cyclohexyl-Ala-[dPhe]-Pro-Arg-Leu-amide (Cyclohexyl-A[dF]PRL-NH2; SMILES CC(C)C[C@H](NC(=O)[C@H](CCCNC(=N)N)NC(=O)[C@@H]1CCCN1C(=O)[C@@H](Cc1ccccc1)NC(=O)[C@H](C)NC1CCCCC1)C(N)=O) [Cyc-A-dPhe-4] | No differences |  |  | 15 | 100 | 7 | 6 | inhibited LPK |  |  |  |  |  |  | failed to lower pheromone content |  |
| Fmoc-Ala-Ser-Pro-[dPhe]-Leu-amide (Fmoc-ASP[dF]L-NH2; SMILES CC(C)C[C@H](NC(=O)[C@@H](Cc1ccccc1)NC(=O)[C@@H]1CCCN1C(=O)[C@H](CO)NC(=O)[C@H](C)NC(=O)OCC1c2ccccc2-c2ccccc21)C(N)=O) [Fmoc-A-dPhe-6] |  |  |  | 35 | 100 | 67 | 100 |  |  |  |  |  |  |  |  |  |
| Fmoc-Ala-[dPhe]-Pro-Arg-Leu-amide (Fmoc-A[dF]PRL-NH2; SMILES CC(C)C[C@H](NC(=O)[C@H](CCCNC(=N)N)NC(=O)[C@@H]1CCCN1C(=O)[C@@H](Cc1ccccc1)NC(=O)[C@H](C)NC(=O)OCC1c2ccccc2-c2ccccc21)C(N)=O) [Fmoc-A-dPhe-4] | No differences |  |  | 28 | 100 | 68 | 100 |  |  |  |  |  |  |  |  |  |
